In patent publication US20240408093A1, “HETEROBIFUNCTIONAL COMPOUNDS AND THEIR USE IN TREATING DISEASE” (HALDA THERAPEUTICS OPCO, INC., priority 2022, published 2024):
pEC50, pKd: −log10 of the molar value.

Key:
EGFR T790M L858R = molecular target: T1, EGFR T790M L858R (Homo sapiens, UniProt P00533, L858R/T790M); assay: Release of effector protein ligand from heterobifunctional compounds, EGFR T790M L858R; assay type: biochemical; details: detected A1-3
T1 construct: EGFR T790M L858R (amino acids 696-1022)
Procedure: Exemplary heterobifunctional compounds were evaluated for the ability to release an effector protein ligand in the presence of KRAS G12C, BTK, or EGFR T790M L858R target proteins.
Samples for mass spectrometry for KRAS G12C, BTK, and EGFR T790M L858R were prepared as described above for the intact mass spectrometry target engagement experiment, respectively, except rather than flash-freezing, 20 μL of sample was quenched with 50 μL of 100% acetonitrile. As well, a buffer-only control was used to detect latent release of effector protein ligand analyte. Internal standard (IS) solution consisted of 200 ng/mL propranolol and 50 ng/mL diclofenac in methanol:water 1:1 (v/v). A 4-point calibration curve (calibration standard (CS)) consisting of each analyte was made at final concentrations of 3 nM, 30 nM, 300 nM, and 3000 nM. Unknown samples were diluted such that the unknown analyte concentration was in the linear range of the calibration curve.
Samples for all proteins were prepared and analyzed from the following:
Samples were further analyzed with AB Sciex Triple Quad 5500 system coupled with Shimadzu Prominence HPLC.

GSPT1 = molecular target: T2, GSPT1 (Homo sapiens, UniProt P15170+Q96SW2); assay: GSPT1 HiBiT degradation assay; assay type: cell-based; details: HEK293 LgBiT GSPT1 HiBiT cells, 6 hours
T2 construct: host or cells: HEK293 LgBiT / GSPT1 HiBiT CRISPR knock-in
T2 sequence (P15170 whole entry): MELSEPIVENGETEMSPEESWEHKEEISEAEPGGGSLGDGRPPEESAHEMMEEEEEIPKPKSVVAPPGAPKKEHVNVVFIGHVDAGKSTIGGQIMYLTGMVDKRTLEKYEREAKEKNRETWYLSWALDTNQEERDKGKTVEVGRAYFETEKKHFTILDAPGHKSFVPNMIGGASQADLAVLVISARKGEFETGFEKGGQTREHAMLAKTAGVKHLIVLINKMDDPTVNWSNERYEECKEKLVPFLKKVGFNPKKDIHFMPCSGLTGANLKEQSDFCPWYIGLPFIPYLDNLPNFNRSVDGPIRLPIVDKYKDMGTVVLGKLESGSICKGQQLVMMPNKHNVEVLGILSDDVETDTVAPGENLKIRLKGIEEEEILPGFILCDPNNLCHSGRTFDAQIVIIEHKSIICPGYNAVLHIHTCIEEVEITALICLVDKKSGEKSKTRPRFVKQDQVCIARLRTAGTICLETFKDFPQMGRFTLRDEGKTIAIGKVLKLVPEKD
T2 sequence (Q96SW2 whole entry): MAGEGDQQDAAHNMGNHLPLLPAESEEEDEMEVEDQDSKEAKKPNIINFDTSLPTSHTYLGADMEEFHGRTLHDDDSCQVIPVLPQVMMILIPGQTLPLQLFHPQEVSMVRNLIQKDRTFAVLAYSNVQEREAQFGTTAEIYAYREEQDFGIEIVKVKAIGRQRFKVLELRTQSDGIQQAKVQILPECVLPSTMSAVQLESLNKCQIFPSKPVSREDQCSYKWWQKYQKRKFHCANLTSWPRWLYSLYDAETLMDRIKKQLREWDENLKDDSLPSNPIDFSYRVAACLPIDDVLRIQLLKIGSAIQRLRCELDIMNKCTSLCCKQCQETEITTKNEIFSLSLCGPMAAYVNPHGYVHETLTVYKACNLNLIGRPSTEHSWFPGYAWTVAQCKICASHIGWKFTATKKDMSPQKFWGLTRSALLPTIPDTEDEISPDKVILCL
T2 sequence (Q16531 whole entry partner): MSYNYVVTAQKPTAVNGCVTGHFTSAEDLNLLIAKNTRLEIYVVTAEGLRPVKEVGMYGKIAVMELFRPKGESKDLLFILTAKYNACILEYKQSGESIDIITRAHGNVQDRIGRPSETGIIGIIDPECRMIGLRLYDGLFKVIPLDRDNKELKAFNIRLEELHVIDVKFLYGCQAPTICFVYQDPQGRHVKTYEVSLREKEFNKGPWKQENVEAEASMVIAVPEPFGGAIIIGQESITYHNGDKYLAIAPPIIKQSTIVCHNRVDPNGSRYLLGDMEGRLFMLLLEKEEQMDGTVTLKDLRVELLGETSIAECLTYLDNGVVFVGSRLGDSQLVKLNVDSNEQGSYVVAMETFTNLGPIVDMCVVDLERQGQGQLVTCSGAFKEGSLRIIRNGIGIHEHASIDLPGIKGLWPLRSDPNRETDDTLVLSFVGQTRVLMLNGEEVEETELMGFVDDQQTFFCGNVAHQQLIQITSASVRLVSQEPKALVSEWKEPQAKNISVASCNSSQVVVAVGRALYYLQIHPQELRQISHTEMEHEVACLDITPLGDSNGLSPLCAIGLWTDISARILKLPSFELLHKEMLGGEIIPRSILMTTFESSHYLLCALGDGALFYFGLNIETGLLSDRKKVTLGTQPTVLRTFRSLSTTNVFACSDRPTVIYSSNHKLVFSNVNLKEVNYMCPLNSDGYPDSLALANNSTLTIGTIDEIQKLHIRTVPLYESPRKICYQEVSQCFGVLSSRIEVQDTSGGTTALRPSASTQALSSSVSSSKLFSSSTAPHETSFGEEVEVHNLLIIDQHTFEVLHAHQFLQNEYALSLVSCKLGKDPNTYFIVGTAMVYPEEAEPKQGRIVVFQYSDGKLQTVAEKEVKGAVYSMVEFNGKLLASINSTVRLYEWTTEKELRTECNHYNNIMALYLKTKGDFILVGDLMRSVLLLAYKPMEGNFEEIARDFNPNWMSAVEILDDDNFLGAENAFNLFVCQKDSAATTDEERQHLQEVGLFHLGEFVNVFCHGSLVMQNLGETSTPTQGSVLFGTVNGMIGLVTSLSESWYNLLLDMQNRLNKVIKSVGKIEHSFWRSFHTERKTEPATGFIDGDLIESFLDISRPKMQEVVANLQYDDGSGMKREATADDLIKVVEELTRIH
Outline: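 HEK293 CRISPR knock-in cells expressing LgBiT and GSPT1-HiBiT were seeded at 1000 cells/well and, after 18-24 h, treated with titrated compound plus endurazine (0.5× final) at 37 °C. Luminescence read after 6 h; loss of signal reflects GSPT1 degradation, giving DC50.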

[1] = molecular target: T3, full-length BTK (amino acids 1-659) (Homo sapiens, UniProt Q06187); assay: KdELECT binding assay, BTK
T3 construct: full-length BTK (amino acids 1-659); host or cells: mammalian cells (HEK-293)
T3 sequence (Q06187 whole entry, the tested form may be a part): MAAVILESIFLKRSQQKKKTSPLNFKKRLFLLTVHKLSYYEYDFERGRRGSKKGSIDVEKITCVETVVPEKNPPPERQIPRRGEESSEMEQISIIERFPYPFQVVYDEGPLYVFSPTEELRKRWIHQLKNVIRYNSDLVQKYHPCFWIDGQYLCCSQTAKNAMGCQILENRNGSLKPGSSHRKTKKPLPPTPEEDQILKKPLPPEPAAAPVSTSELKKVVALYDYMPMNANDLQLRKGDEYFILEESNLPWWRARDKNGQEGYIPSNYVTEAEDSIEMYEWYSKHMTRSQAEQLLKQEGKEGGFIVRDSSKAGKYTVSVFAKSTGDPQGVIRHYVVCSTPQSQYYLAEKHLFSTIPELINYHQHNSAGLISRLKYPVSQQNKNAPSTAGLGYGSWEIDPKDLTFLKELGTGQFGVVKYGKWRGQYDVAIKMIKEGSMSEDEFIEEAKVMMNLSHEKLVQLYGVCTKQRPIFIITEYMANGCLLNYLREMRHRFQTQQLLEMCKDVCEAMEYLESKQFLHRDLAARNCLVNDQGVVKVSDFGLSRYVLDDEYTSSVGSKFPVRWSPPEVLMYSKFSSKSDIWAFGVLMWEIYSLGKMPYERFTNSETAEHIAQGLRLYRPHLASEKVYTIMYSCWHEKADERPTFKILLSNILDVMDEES
Procedure: Exemplary compounds were tested for ability to bind to full-length BTK (amino acids 1-659; Accession Number NP_000052.1) expressed from mammalian cells. Compounds were tested using the KdELECT assay.
(§1) Kinase-tagged T7 phage strains were prepared in an E. coli host derived from the BL21 strain. E. coli were grown to log-phase and infected with T7 phage and incubated with shaking at 32° C. until lysis. The lysates were centrifuged and filtered to remove cell debris. The remaining kinases were produced in HEK-293 cells and subsequently tagged with DNA for qPCR detection. Streptavidin-coated magnetic beads were treated with biotinylated small molecule ligands for 30 minutes at room temperature to generate affinity resins for kinase assays. The liganded beads were blocked with excess biotin and washed with blocking buffer (SeaBlock (Pierce), 1% BSA, 0.05% Tween 20, 1 mM DTT) to remove unbound ligand and to reduce non-specific binding. Binding reactions were assembled by combining kinases, liganded affinity beads, and test compounds in 1× binding buffer (20% SeaBlock, 0.17× PBS, 0.05% Tween 20, 6 mM DTT). Test compounds were prepared as 111× stocks in 100% DMSO. Kd values were determined using an 11-point 3-fold compound dilution series with three DMSO control points. All compounds for Kd measurements are distributed by acoustic transfer (non-contact dispensing) in 100% DMSO. The compounds were then diluted directly into the assays such that the final concentration of DMSO was 0.9%. All reactions performed in polypropylene 384-well plate. Each was a final volume of 0.02 mL. The assay plates were incubated at room temperature with shaking for 1 hour and the affinity beads were washed with wash buffer (1× PBS, 0.05% Tween 20). The beads were then re-suspended in elution buffer (1× PBS, 0.05% Tween 20, 0.5 μM nonbiotinylated affinity ligand) and incubated at room temperature with shaking for 30 minutes. The kinase concentration in the eluates was measured by qPCR.

HeLa cells (ATCC CCL-2) = assay: Cellular growth inhibition assay, HeLa cells (Example 16); assay type: cell-based; details: Homo sapiens, 72 hours, CellTiter-Glo 2.0
[2] = test system: HEK293 cells (ATCC CRL-1573); assay: Cellular growth inhibition assay, HEK293 cells (Example 16); assay type: cell-based; details: Homo sapiens, 72 hours, CellTiter-Glo 2.0
[3] = molecular target: T4, EGFR WT (amino acids 669-1011) (Homo sapiens, UniProt P00533); assay: KdELECT binding assay, EGFR WT
T4 construct: purchased Eurofins Discovery (KdELECT); host or cells: bacteria (E. coli BL21-derived, T7 phage)
Procedure: (§2) Exemplary compounds were tested for ability to bind to EGFR WT (amino acids 669-1011, Accession Number NP_005219.2) or EGFR T790M, L858R (amino acids 669-1011 Accession Number NP_005219.2) expressed from bacteria or mammalian cells, respectively. Compounds were tested using the KdELECT assay at Eurofins Discovery.
as §1, with “in 1x” for “in 1×”

[4] = molecular target: T5, EGFR T790M/L858R kinase domain (Homo sapiens, UniProt P00533, L858R/T790M); assay: EGFR cellular target engagement assay (HEK293 cells stable for EGFR T790M, L858R); assay type: cell-based; details: 6 hours, read-out: TE50 (the source's name)
T5 construct: EGFR (amino acids 696-1022, T790M, L858R); expressed in transfected cells; host or cells: HEK293, lentiviral transduction, puromycin selection
Procedure: HEK293 cells were cultured in DMEM (Gibco 11995), supplemented with 10% Heat-inactivated FBS (Gibco A38400-01) and 1% Penicillin/Streptomycin (Gibco 15140-122) at 37° C. with 5% CO2 in a humidified tissue culture incubator. Cells were made stable for EGFR (amino acids 696-1022, T790M, L858R) by lentiviral transduction, followed by selection with 1 μg/ml Puromycin Dihydrochloride (Thermo A1113803). Cells were seeded at 30,000 cells/ml in 0.1 ml of complete media in Poly-D-lysine-treated 96-well plates and incubated overnight. Cells were treated with increasing concentrations of compound and let incubate at 37C and 5% CO2 for 6 hours, after which media was aspirated, washed with 1×PBS and cells were lysed in RIPA Lysis and Extraction Buffer (Thermo 89901) supplemented with 5 mM MgCl2, Protease and Phosphatase inhibitor cocktail (Thermo 1861281), and Universal Nuclease (Thermo 88700). Plates with RIPA were shaken at 4° C. at 600 rpm for 15 min. After shaking samples, they were collected and spun down at 21,000 g for 15 min at 4° C. Following centrifugation, […] of lysate was added to Laemmli Sample Buffer (Bio-Rad 1610747) plus 10% beta-mercaptoethanol, boiled for 15 minutes at 65° C. and loaded onto 4-20% Mini-PROTEAN TGX™ Precast Protein Gels (Bio-Rad). Protein was transferred to a nitrocellulose membrane (Thermo LC2000) using the iBlot 2 Dry Blotting System (Thermo). After transfer, membranes were washed in 1× TBST (Bioland Scientific LLC TBST0103) 3× for 5 min. Following the wash, blocking buffer (Rockland MB-070) was added for 1 hour at room temperature. Primary antibodies against EGFR (Cell Signaling Technology 3197) and actin (Cell Signaling Technology 3700S) were added overnight at 4° C. Membranes were then washed again 3× for 5 min in 1× TBST. Secondary antibodies (LI-COR 926-68072 and 926-68073) were added and shaken for 1 hr at room temperature. Membranes were then washed 3× for 5 min in 1×TBST and developed. Membranes were placed on an Odyssey imager (LI-COR).

CCNK = molecular target: T6, CCNK (Homo sapiens, UniProt O75909+Q16531+Q9NYV4); assay: CCNK HiBiT degradation assay; assay type: cell-based; details: HEK293 LgBiT/CCNK HiBiT cells, 6 hours
T6 construct: expressed in transfected cells; host or cells: HEK293 LgBiT cells (Promega), lentiviral transduction, puromycin selection
T6 sequence (O75909 whole entry, species assumed): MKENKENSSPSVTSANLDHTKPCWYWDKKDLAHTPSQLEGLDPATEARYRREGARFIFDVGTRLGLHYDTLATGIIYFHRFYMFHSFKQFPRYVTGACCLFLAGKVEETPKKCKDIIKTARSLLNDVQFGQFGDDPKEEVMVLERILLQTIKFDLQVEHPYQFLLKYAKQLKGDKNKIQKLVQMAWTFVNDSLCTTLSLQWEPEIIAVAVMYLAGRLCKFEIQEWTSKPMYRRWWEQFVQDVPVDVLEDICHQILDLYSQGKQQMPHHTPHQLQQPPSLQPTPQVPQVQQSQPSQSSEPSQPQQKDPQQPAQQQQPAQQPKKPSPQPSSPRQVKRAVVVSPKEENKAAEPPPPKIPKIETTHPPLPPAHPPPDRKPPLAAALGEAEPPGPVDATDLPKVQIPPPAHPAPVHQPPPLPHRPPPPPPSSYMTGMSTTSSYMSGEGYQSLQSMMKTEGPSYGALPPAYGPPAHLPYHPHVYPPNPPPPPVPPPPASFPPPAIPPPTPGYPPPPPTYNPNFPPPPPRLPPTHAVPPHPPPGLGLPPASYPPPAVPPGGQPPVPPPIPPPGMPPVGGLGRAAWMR
T6 sequence (Q9NYV4 whole entry, species assumed): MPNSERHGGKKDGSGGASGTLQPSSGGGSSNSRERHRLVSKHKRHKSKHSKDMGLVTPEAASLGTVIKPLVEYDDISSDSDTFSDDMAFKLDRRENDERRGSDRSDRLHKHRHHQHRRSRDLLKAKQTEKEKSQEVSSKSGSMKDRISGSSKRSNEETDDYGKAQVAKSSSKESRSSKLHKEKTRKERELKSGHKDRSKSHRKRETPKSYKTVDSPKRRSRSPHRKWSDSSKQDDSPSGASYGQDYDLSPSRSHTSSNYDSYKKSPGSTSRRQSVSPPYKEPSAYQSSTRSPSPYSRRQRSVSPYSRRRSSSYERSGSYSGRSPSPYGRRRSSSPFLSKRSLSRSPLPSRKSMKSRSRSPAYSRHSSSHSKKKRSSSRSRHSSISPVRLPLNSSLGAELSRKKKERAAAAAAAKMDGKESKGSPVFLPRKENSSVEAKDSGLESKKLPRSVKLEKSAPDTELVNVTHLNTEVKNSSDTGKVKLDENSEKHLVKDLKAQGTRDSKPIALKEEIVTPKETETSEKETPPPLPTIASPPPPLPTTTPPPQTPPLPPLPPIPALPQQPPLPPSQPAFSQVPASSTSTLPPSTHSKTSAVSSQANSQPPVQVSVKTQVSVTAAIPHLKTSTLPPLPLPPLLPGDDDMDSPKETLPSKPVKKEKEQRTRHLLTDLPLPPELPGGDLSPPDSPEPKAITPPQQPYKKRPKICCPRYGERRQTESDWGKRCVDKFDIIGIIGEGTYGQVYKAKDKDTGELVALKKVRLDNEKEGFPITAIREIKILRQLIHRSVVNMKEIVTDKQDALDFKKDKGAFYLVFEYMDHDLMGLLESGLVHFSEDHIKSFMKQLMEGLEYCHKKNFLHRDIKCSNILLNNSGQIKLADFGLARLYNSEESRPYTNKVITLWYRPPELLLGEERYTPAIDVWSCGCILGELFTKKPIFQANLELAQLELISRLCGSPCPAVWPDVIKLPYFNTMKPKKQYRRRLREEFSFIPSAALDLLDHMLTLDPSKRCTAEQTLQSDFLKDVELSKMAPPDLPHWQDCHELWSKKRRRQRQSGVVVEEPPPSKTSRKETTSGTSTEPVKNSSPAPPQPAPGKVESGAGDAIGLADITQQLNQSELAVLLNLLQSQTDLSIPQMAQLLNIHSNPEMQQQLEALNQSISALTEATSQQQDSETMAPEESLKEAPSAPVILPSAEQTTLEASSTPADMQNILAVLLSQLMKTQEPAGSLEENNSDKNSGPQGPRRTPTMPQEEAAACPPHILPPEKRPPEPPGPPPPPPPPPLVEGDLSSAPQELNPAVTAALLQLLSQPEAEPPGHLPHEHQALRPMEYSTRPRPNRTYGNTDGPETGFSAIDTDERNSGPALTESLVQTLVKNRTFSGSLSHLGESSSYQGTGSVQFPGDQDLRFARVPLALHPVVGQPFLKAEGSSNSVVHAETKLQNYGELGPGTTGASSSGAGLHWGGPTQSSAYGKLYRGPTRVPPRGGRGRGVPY
T6 sequence (Q16531 whole entry, species assumed): as the sequence (Q16531 whole entry partner) above
Procedure: HEK293 LgBiT cells (Promega) were cultured in DMEM (Gibco 11995), supplemented with 10% Heat-inactivated FBS (Gibco A38400-01) and 1% Penicillin/Streptomycin (Gibco 15140-122) and 200 μg/ml Hygromycin B (Gibco 10-687-010) at 37° C. with 5% CO2 in a humidified tissue culture incubator. Cells were made stable for CCNK fused to a C-terminal HiBiT peptide by lentiviral transduction, followed by selection with 1 μg/ml Puromycin Dihydrochloride (Thermo A1113803). HEK293 LgBiT/CCNK HiBiT cells were seeded at 3000 cells/well in 384-well, tissue culture-treated white plates (Perkin Elmer 6007680) in 25 μL media lacking selection for 18-24 hours. Plates were spun at 300 g for 30 seconds and stored in the incubator overnight. After 24 hours, compounds were titrated in DMSO and added to media supplemented with Endurazine Substrate (Promega N2570). A 25 ul aliquot of 2× compound/endurazine in media were then added to the 384-well microplate with seeded cells. (Endurazine was used at a final concentration of 0.5×). The plate was spun at 300 g for 30 seconds and stored in the incubator. After 6 hours the plate was read on Envision MultiMode Plate Reader 2105 (Perkin Elmer) to measure luminescence signal. Data were plotted in Prism (Graphpad) and the concentration of compound at which 50% CCNK degradation occurs (DC50) was calculated.

[5] = molecular target: T7, EGFR T790M, L858R (amino acids 669-1011) (Homo sapiens, UniProt P00533, L858R/T790M); assay: KdELECT binding assay, EGFR T790M, L858R
T7 construct: purchased Eurofins Discovery (KdELECT); host or cells: mammalian cells (HEK-293)
Procedure: as §2
as §1, with “in 1x” for “in 1×”

Row | SMILES | DC50 (GSPT1) | pKd [1] | GI50 (HeLa cells (ATCC CCL-2)) | GI50 [2] | also measured
1 | C=C(Cn1cc(CNc2cc(N3CCCC[C@H]3CCO)nc3c(CC)cnn23)ccc1=O)C(=O)N[C@@H]1CN(c2nc(Nc3cn(C)nc3OC)c3ncn(C)c3n2)C[C@H]1F [Compound A1-8] |  |  |  |  | Concentration of Effector Protein Ligand (EGFR T790M L858R; Buffer + Protein (EGFR T790M L858R), Time 0 h): 0.889 µM; Concentration of Effector Protein Ligand (EGFR T790M L858R; Buffer + Protein (EGFR T790M L858R), Time 2 h): 5.18 µM; Concentration of Effector Protein Ligand (EGFR T790M L858R; Buffer + Protein (EGFR T790M L858R), Time 8 h): 6.91 µM; Concentration of Effector Protein Ligand (EGFR T790M L858R; Buffer + Protein (EGFR T790M L858R), Time 24 h): 9.11 µM; Concentration of Effector Protein Ligand (EGFR T790M L858R; Buffer, Time 0 h): 0.894 µM; Concentration of Effector Protein Ligand (EGFR T790M L858R; Buffer, Time 2 h): 4.06 µM; Concentration of Effector Protein Ligand (EGFR T790M L858R; Buffer, Time 8 h): 7.24 µM; Concentration of Effector Protein Ligand (EGFR T790M L858R; Buffer, Time 24 h): 8.26 µM
2 | C=C(CN(C(=O)NCc1ccc2c(c1)CN(C1CCC(=O)NC1=O)C2=O)c1ccc(C(F)(F)F)c(Cl)c1)C(=O)N1CCC[C@@H](n2nc(-c3ccc(Oc4ccccc4)cc3)c3c(N)ncnc32)C1 (stereo partly drawn) [Compound I-38] | > 2500 nM | 5.60 to 6.30 | > 10000 nM | > 10000 nM | 
3 | C=C(COc1ccc(Cl)cc1NC(=O)NCc1ccc2c(c1)CN(C1CCC(=O)NC1=O)C2=O)C(=O)N1CCC[C@@H](n2nc(-c3ccc(Oc4ccccc4)cc3)c3c(N)ncnc32)C1 (stereo partly drawn) [I-32] |  | 6.30 to 7.30 | 500 to 1500 nM | 500 to 1500 nM | 
4 | C=C(COC(=O)N1CCN(c2nc(NCc3nc4cc(C)ccc4[nH]3)n3ncc(Br)c3n2)CC1)C(=O)N[C@@H]1CN(c2nc(Nc3cn(C)nc3OC)c3ncn(C)c3n2)C[C@H]1F [II-184] |  |  | < 500 nM | < 500 nM | pKd [3]: 6.30 to 7.30; pEC50 [4]: 5.30 to 6.60; DC50 (CCNK): < 250 nM; pKd [5]: 6.30 to 7.30
5 | C=C(COc1cc(Cl)cc(NC(=O)NCc2ccc3c(c2)CN(C2CCC(=O)NC2=O)C3=O)c1)C(=O)N1CCC[C@@H](n2nc(-c3ccc(Oc4ccccc4)cc3)c3c(N)ncnc32)C1 (stereo partly drawn) [Compound I-114] | 500 to 2500 nM | > 7.30 | 1500 to 10000 nM | 500 to 1500 nM | 
6 | C=C(CN1C(=O)CCC(N2Cc3cc(CNC(=O)Nc4ccc(C)c(Cl)c4)ccc3C2=O)C1=O)C(=O)N1CCC[C@@H](n2nc(-c3ccc(Oc4ccccc4)cc3)c3c(N)ncnc32)C1 (stereo partly drawn) [Compound I-3, 1-[[2-[1-[2-[(3R)-3-[4-amino-3-(4-phenoxyphenyl)pyrazolo[3,4-d]pyrimidin-1-yl]piperidine-1-carbonyl]allyl]-2,6-dioxo-3-piperidyl]-1-oxo-isoindolin-5-yl]methyl]-3-(3-chloro-4-methyl-phenyl)urea] | > 2500 nM | 5.60 to 6.30 |  |  | 
